{"source": "patent US20040185009A1", "about": "“Composition and device for treating periodontal diseases” (DEXCEL PHARMA TECHNOLOGIES LTD., priority 2003, published 2004)", "origin": "cited, not measured here", "key": {"periodontal disease [1]": {"tested_on": "periodontal disease", "conditions": "100 mg/day for two months"}, "periodontal disease [2]": {"tested_on": "periodontal disease", "conditions": "24 months, FBP-treated patient group"}}, "data": [{"smiles": "CC(C(=O)O)c1ccc(-c2ccccc2)c(F)c1", "note": "(centres unmarked) [FBP, Flurbiprofen]", "values": [{"measurement": "Effect on bone metabolism (standardized radiography, radiopharmaceutical uptake)", "setting": "periodontal disease [1]", "result": "increased bone metabolism"}, {"measurement": "Effect on bone loss", "setting": "periodontal disease [2]", "result": "reduction in bone loss"}]}]}
